# In US9739791B2, “Methods for predicting and treating myocardial damage” (THE CLEVELAND CLINIC FOUNDATION, priority 2010, dated 2017):
# Tested on: infarct size after ischemia reperfusion (LAD ligation)
# Assay: LAD ligation/reperfusion, infarct size as percent area at risk after CoQ10 pretreatment
# Assay type: in vivo
# Settings: WT mice; CoQ10 ip 1 mg/kg/day for 3 days prior to ischemia reperfusion; compared to WT controls; p=0.15
# Procedure: FIG. 4 is a plot comparing infarct size as a percentage of AAR in WT and ApoAI-null mice given saline or Coenzyme Q10 daily for 3 days prior to ischemia induced by 30 minutes of LAD ligation and 3 hours of reperfusion (data represent mean±SD; n=4-6 per group; *p<0.0001 compared to strain-matched NT control).
# All animal protocols were approved by the Animal Research Committee, and all animals were housed in the Association for Assessment and Accreditation of Laboratory Animal Care International-approved animal facility of the Cleveland Clinic. Anterior wall MI (AMT) was performed as recently described (Askari, A. T. et al., J. Exp. Med. 197:615-624, 2003). Briefly, AMI was induced in eight 20- to 25-g male littermate wild-type (C57BL/6J), ApoA1 heterozygote (ApoA1^+/−) or knockout (ApoA1^−/−) mice by ligation of the LAD 7-0 Prolene. Blanching and dysfunction of the anterior wall verified LAD ligation. After 30 minutes of LAD ligation, microsurgical scissors were used to cut the knot in the ligature at the level of the myocardium, and animals subsequently underwent reperfusion for 3 hours. […] Animals were kept on ventilator for the entire 3 hours of reperfusion and subsequently analyzed for area at risk and infarct size using 1% solution of 2,3,5-triphenyltetrazolium chloride (TTC) at 37° C. […]
compound,measurement,value
"COC1=C(OC)C(=O)C(C/C=C(\C)CC/C=C(\C)CC/C=C(\C)CC/C=C(\C)CC/C=C(\C)CC/C=C(\C)CC/C=C(\C)CC/C=C(\C)CC/C=C(\C)CCC=C(C)C)=C(C)C1=O [CoQ10, Coenzyme Q10]",decrease in IS/% AAR,non-significant trend
